In patent US6451332B1, “Pesticidal composition having high pesticidal ingredient vaporization rate method for controlling pests, and method for producing a pesticidal composition” (Sumitomo Chemical Company, Limited, priority 1997, dated 2002):

How the values were obtained:
[1] = Vaporization rate of the pesticidal ingredient (silica gel trap, acetone extraction, gas chromatography); type: physicochemical; conditions: 10 g composition heated with 100 g calcium oxide and water; air sucked at 30 L/min for 5 min
Method: Pesticidal devices were prepared in the same method as test examples 5 and 8, and had water poured to the calcium oxide. After the reaction of calcium oxide with water started, the pesticidal device was replaced to a glass funnel with a lid. The vaporizing pesticidal ingredient was then trapped to silica gel in glass column connected to the funnel by sucking air at 30 L/min for 5 m in. Subsequently, the pesticidal ingredient present in the silica gel was extracted with acetone. The vaporization rate for the pesticidal ingredient was then measured by the quantitative analysis of gas chromatography.
A pesticidal device was prepared by placing:
1) 10 g of the pesticidal composition obtained in example 2 was placed interior to the separating wall of the container presented in FIG. 1 and
2) 100 g of calcium oxide with 1-20 mesh was placed exterior to the said separating wall but within the said container. The acquired pesticidal device was then tested for the vaporization rate by utilizing the procedure recited in test example 10.

[2] = Japanese Laid-open patent No. sho-53-109945A, table 2, sample #23; cited from earlier work

Structure (SMILES) | vaporization rate for the pesticidal ingredient [1] [%] | vaporization rate [2] [%]
COC(=O)c1cc(Cl)ccc1NS(=O)(=O)C(F)(F)F [2-methoxycarbonyl-4-chlorotrifluoromethanesulfonanilide] | 78.5 | 
CC(C)=CC1C(C(=O)OCN2C(=O)C3=C(CCCC3)C2=O)C1(C)C (stereo not drawn) [tetramethrin] | 88.1 | 63.0
